Assay results published in US11472807B2, “Purine derivatives for use as medicament and for use in treating neurodegenerative or neuro-inflammatory disorders” (COMMISSARIAT À L'ENERGIE ATOMIQUE ET AUX ENERGIES …, priority 2017, dated 2022).
Read-outs that look alike come from different tables or passages of the source.

What was measured:
[1] = Pharmacokinetics of Aftin-5 in mice after single PO or IP dose; assay type: in vivo; settings: for Tmax / Cmax / Kp: mouse; for Kp: brain/plasma, read-out: brain/plasma partition coefficient (Kpbrain/plasma)
Description: In addition, pharmacokinetic experiments of Aftin-5 in mice confirmed the ability of the compound to reach the brain. The PK parameters are plotted in Table 3 below.
The brain/plasma partition coefficient (Kpbrain/plasma) was about 0.014 and 0.033 for oral and IP administration, respectively.

[2] = system: aggregates of β-pleated sheets; assay: Thioflavin-S immunohistochemistry of total brain tissue of treated mice; assay type: in vivo; settings: mice treated during 28 days
Method: C57B1 were exposed subcutaneously to Aftin-5 using osmotic minipumps ([…]; Saint-Germain-Nuelles, France). Aftin-5 was dissolved in DMSO:propylene glycol:ethanol (45:45:10). Mice were treated with 1, 3 or 30 mg/Kg for 28 days. Filled pumps were left in saline overnight at 37° C. for priming. Mice were anesthetized with isoflurane (3-4% v/v, 1.5 mL/min) in an induction chamber and maintained under anesthesia through a mask. Mice were shaved on their back, disinfected and an incision made between the scapulae for pump implantation and finally closed with clips. 1% lidocaine gel was applied over the incision for local analgesia. Animals recovered from anesthesia in heated pads and immediately returned to the cages.
Immunohistochemistry assay was conducted with the total brain tissue, from mice treated with Aftin-5 during 28 days, in the presence of Thioflavin-S dye, which binds aggregates of β-pleated sheets.

IL-10 = IL-10 mRNA in OHSC (RT-qPCR); assay type: cell-based, mice; settings: 50 μM, 10 days
Method: FIG. 10. Plots illustrating the effect of Aftin-5 on relative mRNA expression levels of interleukin-1-beta (IL-1β; (A)), interleukin-6 (IL-6; (B)), TNF-alpha (TNFα; (C)) and interleukin-10 (IL-10; (D)) in organotypic hippocampal slice cultures (OHSC). OHSC culture media […] were replaced by incubation medium containing Aftin-5 (50 μM; A50) or vehicle (0.1% DMSO; Veh). 10 days later, total mRNA in lysate was isolated and purified, cDNAs were then synthesized from […] of total mRNA. cDNAs were amplified by quantitative RT-PCR and the relative expression of specific genes was normalized to the housekeeping gene HPRT1 (2^−ΔCt). Mann-Whitney tests were performed and ***p<0.001 indicates significant differences between Aftin-5 and control conditions. Data expressed as means+/−SEM from q=3 independent experiments with n=4-6 inserts/condition and 10 slices/insert. […]
The impact of Aftin-5 on gene expression of different biomarkers was determined by measuring mRNA levels of selected BDNF, CREB, PS95, INS Receptor/IGF-1 receptor, IL-1β, IL-6 in OHSC treated chronically with Aftin-5 or in a total brain from mice exposed to Aftin-5 at either 8 or 30 mg/Kg. […] Threshold cycles (Ct) of target gene and cyclophilin A (Ppia−control housekeeping gene) were recorded and gene expression was calculated as 2^−ΔΔCt(ΔΔCt=ΔCttreated−ΔCtcontrol, ΔCt=Cttarget−CtPpia). […]

CREB, BDNF, PSD95 = assay: mRNA of CREB, BDNF, PSD95 in brains of chronically treated WT mice; assay type: in vivo; settings: brains from WT mice treated chronically
Method: The impact of Aftin-5 on gene expression of different biomarkers was determined by measuring mRNA levels of selected BDNF, CREB, PS95, INS Receptor/IGF-1 receptor, IL-1β, IL-6 in OHSC treated chronically with Aftin-5 or in a total brain from mice exposed to Aftin-5 at either 8 or 30 mg/Kg. Total RNA was extracted with TRIzol@ reagent and purified on RNeasy® minikit columns (Qiagen, Courtaboeuf, France). Briefly, cells were lysed with 0.5 mL of TRIzol@ reagent by pipetting. After addition of 100 μL of chloroform, mixtures were centrifuged at 10000 g for 15 min at 4° C., supernatants mixed with 600 μL of 70% ethanol and loaded onto RNeasy® columns. Total RNA was washed and eluted with RNase-free water according to manufacturer's protocol and stored at −80° C. RNA concentration was measured spectrophotometrically at 260 nm in a NanoDrop 2000c (Thermo Scientific, Villebon-sur-Yvette, France) (sample A260 nm/A280 nm ratios over 1.8 indicated reduced genomic DNA contamination). cDNAs were synthesized from 0.5 μg of total RNA with RT^2 First Strand kit (Qiagen, Courtaboeuf, France) according to the manufacturer's protocol and stored at −80° C. […] Threshold cycles (Ct) of target gene and cyclophilin A (Ppia−control housekeeping gene) were recorded and gene expression was calculated as 2^−ΔΔCt(ΔΔCt=ΔCttreated−ΔCtcontrol, ΔCt=Cttarget−CtPpia). […]

GSK-3β = GSK-3β activity in organotypic slice cultures from transgenic mice overexpressing phosphorylated Tau; assay type: cell-based
Description: Unpredictably, Aftin-5 is shown herein to efficiently promote an attenuation of the phosphorylation of Tau protein (see example 5).

[3] = system: in vitro cell based rat BBB model
Method: A 20% BSA gradient was used for isolation of capillaries. After a second enzymatic digestion, cells were plated in 75 cm^2 coated culture flasks in EBM medium completed by the EGM-2 MV Single Quots kit (Lonza, Basel, Switzerland). Cultures were maintained at 37° C. in a humidified 5% CO2 atmosphere for 5-6 days before being trypsinized and frozen.
The chambers containing human glial cells and brain endothelial cells were considered as the basolateral and apical compartment, respectively. The microplates were then incubated at 37° C. in a 5% CO2 atmosphere. Under these experimental conditions, brain endothelial cells formed a confluent monolayer within 15 days.
After checking BBB integrity, Transwells® with BEC monolayers were transferred to new plates. T buffer (150 mM NaCl, 5.2 mM KCl, 2.2 mM CaCl2, 0.2 mM MgCl2, 6 mM NaHCO3, 2.8 mM glucose and 5 mM Hepes) was added 1.5 mL to the basal chamber (B) and 0.5 ml to the apical chamber (A). […] The Papp value was calculated as followed: Papp=dQ/dT×A×C0 (1) where dQ/dT: amount of drug transported per time-point; A: membrane surface area; Co: donor concentration at time-point 0. […] The mass balance was calculated as follows: R (%)=([(Ap+Bs)/A0]×100 (2) where Ap and Bs are the amount of tested compounds in the apical and basal compartments, respectively. A0 is the initial amount in the donor compartment.

[4] = plasma, IP single dose 10 mg/kg

With CC[C@H](CO)Nc1nc(N(C)c2ccccc2)c2ncn(C(C)C)c2n1 [Aftin-5] the “AUC0-∞” value ([1]; brain, IP single dose 10 mg/kg) was 441.51 nMh, the “t^1/2” value ([1]; brain, IP single dose 10 mg/kg) was 0.6 h and the “AUC0-∞” value ([1]; brain, PO single dose 5 mg/kg) was 115.25 nMh. For the same compound, the “t^1/2” value ([1]; brain, PO single dose 5 mg/kg) was 1.8 h, the Tmax ([1]; brain, IP single dose 10 mg/kg) was 4.98 min and the Tmax ([1]; brain, PO single dose 5 mg/kg) was 15 min. For the same compound, the Cmax ([1]; brain, ip, 10 mg/kg, IP single dose 10 mg/kg) was about 807 nM, the Cmax ([1]; brain, po, 5 mg/kg, PO single dose 5 mg/kg) was about 44.9 nM and the Kp ([1]; IP administration, single dose 10 mg/kg) was about 0.033. The Kp ([1]; oral administration, single dose 5 mg/kg) was about 0.014, the Tmax [1, 4] was 4.98 min and the Tmax ([1]; plasma, PO single dose 5 mg/kg) was 15 min. The Cmax ([1]; plasma, ip, 10 mg/kg, IP single dose 10 mg/kg) was 22600 nM, the Cmax ([1]; plasma, po, 5 mg/kg, PO single dose 5 mg/kg) was 3890 nM and the “AUC0-∞” value [1, 4] was 13577.63 nMh. The “t^1/2” value [1, 4] was about 1.2 h, the “aggregates of β-pleated sheets (Thioflavin-S binding)” value [2] was “absence” and the “IL-10 mRNA synthesis” value (IL-10) was “no changes”. For the same compound, the “mRNA for CREB, BDNF as well as for PSD95 in brain” value (CREB, BDNF, PSD95) was “high mRNA”, the “activity of GSK-3β” value (GSK-3β) was “reduces” and the “Papp compared to Papp value of memantine” value [3] was “not significantly different”.
